Patent publication US11458144B1, “Methods for using 5-HMF analogs with increased solubility to inhibit or reverse RBC sickling” (King Abdulaziz University, priority 2021, dated 2022)

Experiments:
[1] = biological target: T1, Hb (Homo sapiens, UniProt P68871+P69905, E7V); experiment: Hb adduct formation (Hb modification) by cation-exchange HPLC, SS blood lysates; assay type: binding; conditions: 2 mM, SS RBCs
T1 construct: Using homozygous sickle (SS) blood from patients; endogenous in cells; host or cells: red blood cells of homozygous SS patient blood (hematocrit 20%); clarified lysates measured after incubation
Text: (§1) The effect of the MMA compounds and positive control 5-HMF on RBC sickling, Hb modification, and Hb oxygen equilibrium was studied utilizing SS blood following previous procedure.^[27]
The Hb adduct formation study also used clarified lysates that were subjected to a cation-exchange HPLC (Hitachi D-7000 Series, Hitachi Instruments, Inc., San Jose, Calif.), and a weak cation-exchange column (Poly CAT A: 30 mm×4.6 mm, Poly LC, Inc., Columbia, Md.).
(§2) Using homozygous sickle (SS) blood from patients, the MMA compounds (MMA502, MMA503, MMA504, MMA505, and MMA509 were tested with 5-HMF as control for Hb adduct formation, effect on Hb affinity for oxygen and corresponding antisickling activities (RBC morphology study) using previously published protocols.^14,15

[2] = system: SS RBCs; experiment: Antisickling study (RBC morphology) in SS blood under hypoxia; assay type: cell-based, human; conditions: 2 mM, SS blood hematocrit 20%, 2.5% O2, 37° C.
Description: as §1
For the antisickling study, SS blood (hematocrit 20%) were incubated under air in the absence or presence of all the MMA compounds (0.5 mM, 1 mM and 2 mM) at 37° C. for 1 h, followed by incubating the mixture under hypoxic conditions (2.5% O2) at 37° C. for 2 h. Aliquots with fixed 2% glutaraldehyde solution and under anaerobic condition were subjected to microscopic morphological analysis.^[11]
as §2

[3] = biological target: T1, Hb; experiment: Oxygen equilibrium study (P50 shift) of lysates from SS blood, Hemox Analyzer; assay type: cell-based; conditions: 2 mM, SS RBCs
Description: as §1
For the oxygen equilibrium study, about 100 μL aliquot of clarified lysate of residual samples from the above antisickling study was added to 4 mL of 0.1 M potassium phosphate buffer, pH 7.0, in cuvettes and subjected to hemoximetry analysis using Hemox™ Analyzer (TCS Scientific Corp., New Hope, Pa.) to assess P50 shift, which is the partial pressure of oxygen (PO2) at which 50% of Hb is saturated with oxygen (SO2). Degree of Hb O2 affinity shift (ΔP50) was expressed as percentage fractions of control DMSO-treated samples.
as §2

O=Cc1ccc(CO)o1 [Compound 5-HMF, 5-hydroxymethylfurfural, reference compound]
% Hb-modification (adduct formation) [1]: 33%
% Hb-modification (adduct formation) ([1]; listed as 5HMF): 33.8 ± 11.7%
% Sickling inhibition [2]: 21.4 ± 0.0%
inhibition at 2000 µM ([2]; Homo sapiens, read-out: % Sickling inhibition): 21%
% Hb-O2 affinity (P50 shift vs DMSO control) [3]: 27%
% Hb-O2 affinity (P50 shift vs DMSO control) ([3]; listed as 5HMF): 27.2 ± 4.9%
